According to PubChem BioAssay (NCI):
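Compound exposure: 48 hours, 5 concentrations, 96-well plates. Abbreviation: GI50, concentration required for 50% inhibition of growth. Definition used: TGI = concentration required for complete inhibition of growth.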

Assays:
Test in all cases: growth of human tumour cells (NCI), 48 h
786-0 renal = test system: 786-0 renal
A498 renal = test system: A498 renal
A549 NSCLC = test system: A549 NSCLC
ACHN renal = test system: ACHN renal
BT-549 breast = test system: BT-549 breast
CAKI-1 renal = test system: CAKI-1 renal
CCRF-CEM leukemia = test system: CCRF-CEM leukemia
COLO 205 colon = test system: COLO 205 colon
DU-145 prostate = test system: DU-145 prostate
EKVX NSCLC = test system: EKVX NSCLC
HCC-2998 colon = test system: HCC-2998 colon
HCT-116 colon = test system: HCT-116 colon
HCT-15 colon = test system: HCT-15 colon
HL-60(TB) leukemia = test system: HL-60(TB) leukemia
HOP-62 NSCLC = test system: HOP-62 NSCLC
HOP-92 NSCLC = test system: HOP-92 NSCLC
HS 578T breast = test system: HS 578T breast
HT29 colon = test system: HT29 colon
IGROV1 ovarian = test system: IGROV1 ovarian
K-562 leukemia = test system: K-562 leukemia
KM12 colon = test system: KM12 colon
LOX IMVI melanoma = test system: LOX IMVI melanoma
M14 melanoma = test system: M14 melanoma
MALME-3M melanoma = test system: MALME-3M melanoma
MCF7 breast = test system: MCF7 breast
MDA-MB-231 breast = test system: MDA-MB-231 breast
MDA-MB-435 = test system: MDA-MB-435
MOLT-4 leukemia = test system: MOLT-4 leukemia
NCI-H226 lung = test system: NCI-H226 lung
NCI-H23 lung = test system: NCI-H23 lung
NCI-H460 lung = test system: NCI-H460 lung
NCI-H522 lung = test system: NCI-H522 lung
NCI/ADR-RES ovarian = test system: NCI/ADR-RES ovarian
OVCAR-3 ovarian = test system: OVCAR-3 ovarian
OVCAR-4 ovarian = test system: OVCAR-4 ovarian
OVCAR-5 ovarian = test system: OVCAR-5 ovarian
OVCAR-8 ovarian = test system: OVCAR-8 ovarian
PC-3 prostate = test system: PC-3 prostate
RPMI-8226 leukemia = test system: RPMI-8226 leukemia
RXF 393 renal = test system: RXF 393 renal
SF-268 CNS = test system: SF-268 CNS
SF-295 CNS = test system: SF-295 CNS
SF-539 CNS = test system: SF-539 CNS
SK-MEL-2 melanoma = test system: SK-MEL-2 melanoma
SK-MEL-28 melanoma = test system: SK-MEL-28 melanoma
SK-MEL-5 melanoma = test system: SK-MEL-5 melanoma
SK-OV-3 ovarian = test system: SK-OV-3 ovarian
SN12C renal = test system: SN12C renal
SNB-19 CNS = test system: SNB-19 CNS
SR leukemia = test system: SR leukemia
SW-620 colon = test system: SW-620 colon
T-47D breast = test system: T-47D breast
TK-10 renal = test system: TK-10 renal
U251 CNS = test system: U251 CNS
UACC-257 melanoma = test system: UACC-257 melanoma
UACC-62 melanoma = test system: UACC-62 melanoma
UO-31 renal = test system: UO-31 renal

Cc1ccccc1NC(=O)c1sc2nc(C)c(C(=O)/C=C/c3ccccc3)cc2c1N
GI50 (786-0 renal): 820 nM
TGI (786-0 renal): 1770 nM
GI50 (A498 renal): 1230 nM
TGI (A498 renal): 4270 nM
GI50 (A549 NSCLC): 1580 nM
TGI (A549 NSCLC): 9700 nM
GI50 (ACHN renal): 927 nM
TGI (ACHN renal): 1860 nM
GI50 (BT-549 breast): 1330 nM
TGI (BT-549 breast): 5280 nM
GI50 (CAKI-1 renal): 1080 nM
TGI (CAKI-1 renal): 2680 nM
GI50 (CCRF-CEM leukemia): 1500 nM
TGI (CCRF-CEM leukemia): > 50000 nM
GI50 (COLO 205 colon): 1650 nM
TGI (COLO 205 colon): 5270 nM
GI50 (DU-145 prostate): 1340 nM
TGI (DU-145 prostate): 4280 nM
GI50 (EKVX NSCLC): 3860 nM
TGI (EKVX NSCLC): 11100 nM
GI50 (HCC-2998 colon): 913 nM
TGI (HCC-2998 colon): 1670 nM
GI50 (HCT-116 colon): 896 nM
TGI (HCT-116 colon): 1960 nM
GI50 (HCT-15 colon): 836 nM
TGI (HCT-15 colon): 1940 nM
GI50 (HL-60(TB) leukemia): 922 nM
TGI (HL-60(TB) leukemia): 2720 nM
GI50 (HOP-62 NSCLC): 1150 nM
TGI (HOP-62 NSCLC): 2700 nM
GI50 (HOP-92 NSCLC): 1480 nM
TGI (HOP-92 NSCLC): 7260 nM
GI50 (HS 578T breast): 1770 nM
TGI (HS 578T breast): > 50000 nM
GI50 (HT29 colon): 1180 nM
TGI (HT29 colon): 3210 nM
GI50 (IGROV1 ovarian): 953 nM
TGI (IGROV1 ovarian): 2080 nM
GI50 (K-562 leukemia): 731 nM
TGI (K-562 leukemia): > 50000 nM
GI50 (KM12 colon): 901 nM
TGI (KM12 colon): 2020 nM
GI50 (LOX IMVI melanoma): 864 nM
TGI (LOX IMVI melanoma): 1620 nM
GI50 (M14 melanoma): 1580 nM
TGI (M14 melanoma): 6120 nM
GI50 (MALME-3M melanoma): 1430 nM
TGI (MALME-3M melanoma): 6110 nM
GI50 (MCF7 breast): 1500 nM
TGI (MCF7 breast): 8690 nM
GI50 (MDA-MB-231 breast): 1800 nM
TGI (MDA-MB-231 breast): 11000 nM
GI50 (MDA-MB-435): 895 nM
TGI (MDA-MB-435): 2330 nM
GI50 (MOLT-4 leukemia): 1570 nM
TGI (MOLT-4 leukemia): > 50000 nM
GI50 (NCI-H226 lung): 1070 nM
TGI (NCI-H226 lung): 2350 nM
GI50 (NCI-H23 lung): 1210 nM
TGI (NCI-H23 lung): 3160 nM
GI50 (NCI-H460 lung): 1250 nM
TGI (NCI-H460 lung): 3220 nM
GI50 (NCI-H522 lung): 1150 nM
TGI (NCI-H522 lung): 3420 nM
GI50 (NCI/ADR-RES ovarian): 1500 nM
TGI (NCI/ADR-RES ovarian): > 50000 nM
GI50 (OVCAR-3 ovarian): 1000 nM
TGI (OVCAR-3 ovarian): 2120 nM
GI50 (OVCAR-4 ovarian): 1420 nM
TGI (OVCAR-4 ovarian): > 50000 nM
GI50 (OVCAR-5 ovarian): 1010 nM
TGI (OVCAR-5 ovarian): 2620 nM
GI50 (OVCAR-8 ovarian): 1600 nM
TGI (OVCAR-8 ovarian): > 50000 nM
GI50 (PC-3 prostate): 1330 nM
TGI (PC-3 prostate): 3770 nM
GI50 (RPMI-8226 leukemia): 1200 nM
TGI (RPMI-8226 leukemia): 3480 nM
GI50 (RXF 393 renal): 821 nM
TGI (RXF 393 renal): 1600 nM
GI50 (SF-268 CNS): 1200 nM
TGI (SF-268 CNS): 3580 nM
GI50 (SF-295 CNS): 2430 nM
TGI (SF-295 CNS): 16800 nM
GI50 (SF-539 CNS): 977 nM
TGI (SF-539 CNS): 1960 nM
GI50 (SK-MEL-2 melanoma): 1810 nM
TGI (SK-MEL-2 melanoma): 8590 nM
GI50 (SK-MEL-28 melanoma): 1260 nM
TGI (SK-MEL-28 melanoma): 3720 nM
GI50 (SK-MEL-5 melanoma): 1110 nM
TGI (SK-MEL-5 melanoma): 2710 nM
GI50 (SK-OV-3 ovarian): 2500 nM
TGI (SK-OV-3 ovarian): 25900 nM
GI50 (SN12C renal): 1070 nM
TGI (SN12C renal): 2500 nM
GI50 (SNB-19 CNS): 1160 nM
TGI (SNB-19 CNS): 3580 nM
GI50 (SR leukemia): 1130 nM
TGI (SR leukemia): > 50000 nM
GI50 (SW-620 colon): 1000 nM
TGI (SW-620 colon): 2450 nM
GI50 (T-47D breast): 975 nM
TGI (T-47D breast): 2340 nM
GI50 (TK-10 renal): 1550 nM
TGI (TK-10 renal): 6040 nM
GI50 (U251 CNS): 951 nM
TGI (U251 CNS): 1990 nM
GI50 (UACC-257 melanoma): 1830 nM
TGI (UACC-257 melanoma): 8710 nM
GI50 (UACC-62 melanoma): 900 nM
TGI (UACC-62 melanoma): 2040 nM
GI50 (UO-31 renal): 814 nM
TGI (UO-31 renal): 1530 nM
